Data: patent US8618129B2, “Substituted 1-oxo-dihydroisoquinoline-3-carboxamides as KCNQ2/3 modulators” (Gruenenthal GmbH, priority 2010, dated 2013)
pEC50: −log10 of the molar value.

What was measured:
[1] = system: withdrawal reflex of the rat tail (tail flick); assay: Low-intensity tail flick test (rat); format: in vivo; settings: dose 10.00 mg/kg (in brackets in the cell)
Method: Method II. Low-Intensity Tail Flick Test (Rat)
In the low-intensity tail flick test, the determination of the antinociceptive effect of the compounds according to the invention towards an acute noxious thermal stimulus is carried out by measuring the withdrawal reflex of the rat tail (tail flick) in response to a radiant heat beam (analgesia meter; model 2011 of the company Rhema Labortechnik, Hofheim, Germany) according to the method described by D'Amour and Smith (J. Pharm. Exp. Ther. 72, 74 79 (1941). To this end, the rats were placed in a plexiglas restrainer, and a low-intensity radiant heat beam (48° C.) was focused onto the dorsal surface of the tail root. The stimulus intensity was adjusted to result in a mean pre-drug control withdrawal latency of about 7 s, thus also allowing a supraspinal modulation of the spinally mediated acute nociceptive reflex. […] Before administration of a compound according to the invention, the animals were pre-tested twice in the course of five minutes and the mean of these measurements was calculated as the pre-test mean. The antinociceptive effect was determined at 20, 40 and 60 min after peroral compound administration. The antinociceptive effect was calculated based on the increase in the tail withdrawal latency according to the following formula and is expressed as percentage of the maximum possible effect (MPE [%]): MPE=[(T1−T0)/(T2−T0)]*100 […]

KCNQ2/3 channels = molecular target: T1, KCNQ2/3 channels (Homo sapiens, UniProt O43525+O43526); assay: Fluorescence assay using a voltage sensitive dye (fluorimetry); format: cell-based; settings: CHO-K1 cells expressing KCNQ2/3 channels; for Emax: agonistic efficacy relative to retigabine = 100%
T1 construct: expressed in transfected cells; host or cells: CHO-K1 cells, kept under selection antibiotics
Method: Method I. Fluorescence Assay Using a Voltage Sensitive Dye
Human CHO-K1 cells expressing KCNQ2/3 channels are cultivated adherently at 37° C., 5% CO2 and 95% humidity in cell culture bottles (e.g. 80 cm^2 TC flasks, Nunc) with DMEM-high glucose (Sigma Aldrich, D7777) including 10% FCS (PAN Biotech, e.g. 3302-P270521) or alternatively MEM Alpha Medium (1×, liquid, Invitrogen, #22571), 10% fetal calf serum (FCS) (Invitrogen, #10270-106, heat-inactivated) and the necessary selection antibiotics.
Before being sown out for the measurements, the cells are washed with a 1× DPBS buffer without Ca^2+/Mg^2+ (e.g. Invitrogen, #14190-094) and detached from the bottom of the culture vessel by means of Accutase (PAA Laboratories, #L11-007) (incubation with Accutase for 15 min at 37° C.). The cell count then present is determined using a CASY™ cell counter (TCC model, Schärfe System) in order subsequently to apply, depending on the density optimization for the individual cell line, 20,000-30,000 cells/well/100 μl of the described nutrient medium to 96-well measuring plates of the Corning™ CellBIND™ type (Flat Clear Bottom Black Polystyrene Microplates, #3340). Incubation is then carried out for one hour at room temperature, without gassing or adjusting the humidity, followed by incubation for 24 hours at 37° C., 5% CO2 and 95% humidity.
The voltage-sensitive fluorescent dye from the Membrane Potential Assay Kit (Red™ Bulk format part R8123 for FLIPR, MDS Analytical Technologies™) is prepared by dissolving the contents of a vessel Membrane Potential Assay Kit Red Component A in 200 ml of extracellular buffer (ES buffer, 120 mM NaCl, 1 mM KCl, 10 mM HEPES, 2 mM CaCl2, 2 mM MgCl2, 10 mM glucose; pH 7.4). After removal of the nutrient medium, the cells are washed with 200 μl of ES buffer, then covered with a layer of 100 μl of the dye solution prepared above and incubated for 45 min at room temperature with the exclusion of light.
The fluorescence measurements are carried out with a BMG Labtech FLUOstar™, BMG Labtech NOVOstar™ or BMG Labtech POLARstar™ instrument (525 nm excitation, 560 nm emission, Bottom Read mode). After incubation of the dye, 50 μl of the test substances in the desired concentrations, or 50 μl of ES buffer for control purposes, are introduced into separate cavities of the measuring plate and incubated for 30 min at room temperature while being shielded from light. The fluorescence intensity of the dye is then measured for 5 min and the fluorescence value F1 of each well is thus determined at a given, constant time. 15 μl of a […] KCl solution ([…]) are then added to each well. The change in fluorescence is subsequently measured until all the relevant measured values have been obtained (mainly 5-30 min). At a given time after KCl application, a fluorescence value F2 is determined, in this case at the time of the fluorescence peak.
For calculation, the fluorescence intensity F2 is compared with the fluorescence intensity F1, and the agonistic activity of the target compound on the potassium channel is determined therefrom. F2 and F1 are calculated as follows: […]
A substance has an agonistic activity on the potassium channel when
[formula] is to be observed as the dosage of the target compound increases. Calculations of EC50 and IC50 values are carried out with the aid of ‘Prism v4.0’ software (GraphPad Software™).

SMILES | Low intensity tail flick, rat, peroral, % MPE (dose [mg/kg]) [1] | pEC50 (KCNQ2/3 channels) | Emax (KCNQ2/3 channels) [%]
CCCn1c(C(=O)NCc2cccc(F)c2)c(C)c2ccc(C(F)(F)F)cc2c1=O [Example 2, N-(3-fluorobenzyl)-4-methyl-1-oxo-2-propyl-7-(trifluoromethyl)-1,2-dihydroisoquinoline-3-carboxamide] | 10 (10.00) % MPE | 6.91 | 134
COCCn1c(C(=O)NCc2cccc(F)c2)c(C)c2ccc(C(F)(F)F)cc2c1=O [Example 5, N-(3-fluorobenzyl)-2-(2-methoxyethyl)-4-methyl-1-oxo-7-(trifluoromethyl)-1,2-dihydroisoquinoline-3-carboxamide] |  | 6.55 | 87
Cc1c(C(=O)NCc2cccc(F)c2)n(C)c(=O)c2cc(C(F)(F)F)ccc12 [Example 1, N-(3-fluorobenzyl)-2,4-dimethyl-1-oxo-7-(trifluoromethyl)-1,2-dihydroisoquinoline-3-carboxamide] |  | 5.71 | 164
Cc1c(C(=O)NCc2cccc(F)c2)n(C(C)C)c(=O)c2cc(C(F)(F)F)ccc12 [Example 4, N-(3-fluorobenzyl)-2-isopropyl-4-methyl-1-oxo-7-(trifluoromethyl)-1,2-dihydroisoquinoline-3-carboxamide] |  | 6.42 | 144
CCn1c(C(=O)NCc2cccc(F)c2)c(C)c2ccc(C(F)(F)F)cc2c1=O [Example 3, 2-ethyl-N-(3-fluorobenzyl)-4-methyl-1-oxo-7-(trifluoromethyl)-1,2-dihydroisoquinoline-3-carboxamide] |  | 6.71 | 103
